In the Kinase Knowledgebase extract (Sharma et al. 2016):

biological target: CDK2 (UniProt P24941); experiment: Enzyme Assay

| SMILES | Ki [nM] |
| --- | --- |
| CC(=O)N1[C@H](C)CN(c2cc(-n3cnc(Nc4ccc(N5CCN(C(=O)OC(C)(C)C)CC5)cc4)n3)ccn2)C[C@@H]1C | < 500 |
| O=C(CC1CCCC1)Nc1cc(-n2cnc(Nc3ccccc3)n2)ccn1 | > 1000 |
| O=C(Nc1cc(-n2cnc(Nc3ccccc3)n2)ccn1)C1CCCCC1 | 500 to 1000 |
| CC(C)CC(=O)N1CCCN(c2cc(-n3cnc(Nc4ccccc4)n3)ccn2)CC1 | > 1000 |
| CC(=O)N1[C@H](C)CN(c2cc(-n3cnc(Nc4ccc(NC(=O)NC(C)(C)C)cc4)n3)ccn2)C[C@@H]1C | 500 to 1000 |
| CC(=O)N1[C@H](C)CN(c2cc(-n3cnc(Nc4ccc(NC(=O)OCC(C)(C)C)cc4)n3)ccn2)C[C@@H]1C | 500 to 1000 |
| CCOC(=O)c1ccc(Nc2ncn(-c3ccnc(N4C[C@@H](C)N(C(C)=O)[C@@H](C)C4)c3)n2)cc1 | 500 to 1000 |
| COc1cc(Nc2ncn(-c3ccccc3)n2)cc(OC)c1OC | > 1000 |
| CCN(CC)CCNc1cc(-n2cnc(Nc3ccccc3)n2)ccn1 | > 1000 |
| N#CCC(=O)N1CCCN(c2cc(-n3cnc(Nc4ccccc4)n3)ccn2)CC1 | < 500 |
| CC(=O)N1[C@H](C)CN(c2cc(-n3cnc(Nc4ccc(N5CCOCC5)cc4)n3)ccn2)C[C@@H]1C | < 500 |
| CCCN(CCO)c1cc(-n2cnc(Nc3ccccc3)n2)ccn1 | < 500 |
| CC(=O)N1[C@H](C)CN(c2cc(-n3cnc(Nc4ccc(N)cc4)n3)ccn2)C[C@@H]1C | < 500 |
| c1ccc(Nc2ncn(-c3ccnc(N4CCCCCCC4)c3)n2)cc1 | < 500 |
| CCCOC(=O)Nc1ccc(Nc2ncn(-c3ccnc(N4C[C@@H](C)N(C(C)=O)[C@@H](C)C4)c3)n2)cc1 | < 500 |
| CC(=O)N1[C@H](C)CN(c2cc(-n3cnc(Nc4ccccc4)n3)ccn2)C[C@@H]1C | < 500 |
| CN(Cc1ccccc1)c1cc(-n2cnc(Nc3ccccc3)n2)ccn1 | < 500 |
| c1ccc(-n2cnc(Nc3ccnc(N4CCOCC4)c3)n2)cc1 | 500 to 1000 |
| CCCNC(=O)Nc1ccc(Nc2ncn(-c3ccnc(N4C[C@@H](C)N(C(C)=O)[C@@H](C)C4)c3)n2)cc1 | < 500 |
| CCOC(=O)Nc1ccc(Nc2ncn(-c3ccnc(N4C[C@@H](C)N(C(C)=O)[C@@H](C)C4)c3)n2)cc1 | < 500 |
| CN(C)CCCN(C)c1cc(-n2cnc(Nc3ccccc3)n2)ccn1 | > 1000 |
| COCCN(C)c1cc(-n2cnc(Nc3ccccc3)n2)ccn1 | < 500 |

| SMILES | Ki [nM] |
| --- | --- |
| c1ccc(Nc2ncn(-c3ccnc(N4CCCCC4)c3)n2)cc1 | < 500 |
| CC(=O)N1CCCN(c2cc(-n3cnc(Nc4ccccc4)n3)ccn2)CC1 | 500 to 1000 |
| C[C@@H]1CN(c2cc(-n3cnc(Nc4ccccc4)n3)ncn2)C[C@H](C)N1 | > 1000 |
| COc1cc(Nc2ncn(-c3ccc(C#N)cc3)n2)cc(OC)c1OC | 500 to 1000 |
| O=C(C1CCCO1)N1CCN(c2cc(-n3cnc(Nc4ccccc4)n3)ccn2)CC1 (stereo not given) | > 1000 |
| CCOc1cccc(Nc2ncn(-c3ccccc3)n2)c1 | > 1000 |
| CC(=O)N1[C@H](C)CN(c2cc(-n3cnc(Nc4ccccc4)n3)ncn2)C[C@@H]1C | > 1000 |
| c1ccc(-n2cnc(Nc3ccc(N4CCOCC4)cc3)n2)cc1 | > 1000 |
| CCCC(=O)N1CCCN(c2cc(-n3cnc(Nc4ccccc4)n3)ccn2)CC1 | > 1000 |
| c1ccc(Nc2ncn(-c3ccnc(NC4CCCCC4)c3)n2)cc1 | < 500 |
| CC(=O)N1[C@H](C)CN(c2cc(-n3cnc(Nc4ccc(NC(=O)c5ccco5)cc4)n3)ccn2)C[C@@H]1C | 500 to 1000 |
| CC(=O)N1[C@H](C)CN(c2cc(-n3cnc(Nc4ccc(N5CCN(S(=O)(=O)c6ccc(C)cc6)CC5)cc4)n3)ccn2)C[C@@H]1C | 500 to 1000 |
| COC(=O)Nc1ccc(Nc2ncn(-c3ccnc(N4C[C@@H](C)N(C(C)=O)[C@@H](C)C4)c3)n2)cc1 | < 500 |
| CCOc1ccc(Nc2ncn(-c3ccccc3)n2)cc1 | > 1000 |
| CC1CCCN1c1cc(-n2cnc(Nc3ccccc3)n2)ccn1 (stereo not given) | < 500 |
| CC(=O)N1[C@H](C)CN(c2cc(-n3cnc(Nc4ccc(NC(=O)OC(C)C)cc4)n3)ccn2)C[C@@H]1C | 500 to 1000 |
| CC(C)C(=O)N1CCCN(c2cc(-n3cnc(Nc4ccccc4)n3)ccn2)CC1 | > 1000 |
| CC(=O)N1[C@H](C)CN(c2cc(-n3cnc(Nc4ccc(NC(=O)C(F)(F)F)cc4)n3)ccn2)C[C@@H]1C | < 500 |
| c1ccc(-n2cnc(Nc3ccc4c(c3)OCCO4)n2)cc1 | > 1000 |
| O=C(CCc1ccccc1)Nc1cc(-n2cnc(Nc3ccccc3)n2)ccn1 | 500 to 1000 |
| CC(=O)N1[C@H](C)CN(c2cc(-n3cnc(Nc4ccc(NC(=O)OCC(C)C)cc4)n3)ccn2)C[C@@H]1C | 500 to 1000 |
| CN(Cc1cccnc1)c1cc(-n2cnc(Nc3ccccc3)n2)ccn1 | < 500 |

| SMILES | Ki [nM] |
| --- | --- |
| CC(=O)N1[C@H](C)CN(c2cc(-n3cnc(Nc4ccc(NC(=O)NC(C)C)cc4)n3)ccn2)C[C@@H]1C | < 500 |
| CCOC(=O)c1ccc(Nc2ncn(-c3ccnc(N4CCCN(C(C)=O)CC4)c3)n2)cc1 | > 1000 |
| CC(=O)N1CCCN(c2cc(-n3cnc(Nc4ccccc4)n3)ncn2)CC1 | > 1000 |
| CC(C)(C)CC(=O)Nc1cc(-n2cnc(Nc3ccccc3)n2)ccn1 | > 1000 |
| c1ccc(-n2cnc(Nc3ccc(N4CCOCC4)nc3)n2)cc1 | > 1000 |
| O=C(Cc1ccccc1)Nc1cc(-n2cnc(Nc3ccccc3)n2)ccn1 | < 500 |
| c1ccc(Nc2ncn(-c3ccnc(N4CCCCCC4)c3)n2)cc1 | < 500 |
| CC(C)CCN(C)c1cc(-n2cnc(Nc3ccccc3)n2)ccn1 | < 500 |
| CCN(CCO)c1cc(-n2cnc(Nc3ccccc3)n2)ccn1 | < 500 |
| CC(=O)N1[C@H](C)CN(c2cc(-n3cnc(Nc4ccc(NC(=O)N(C)C)cc4)n3)ccn2)C[C@@H]1C | > 1000 |
| CCNC(=O)Nc1ccc(Nc2ncn(-c3ccnc(N4C[C@@H](C)N(C(C)=O)[C@@H](C)C4)c3)n2)cc1 | < 500 |
| O=c1[nH]c2ccccc2n1C1CCN(c2cc(-n3cnc(Nc4ccccc4)n3)ccn2)CC1 | > 1000 |
| CN1C(C)(C)CC(Nc2cc(-n3cnc(Nc4ccccc4)n3)ccn2)CC1(C)C | 500 to 1000 |
| CC(C)Oc1cccc(Nc2ncn(-c3ccccc3)n2)c1 | > 1000 |
| OC[C@H]1CCCN(c2cc(-n3cnc(Nc4ccccc4)n3)ccn2)C1 | < 500 |
| CC(=O)N1[C@H](C)CN(c2cc(-n3cnc(Nc4ccc(NC(=O)c5cccs5)cc4)n3)ccn2)C[C@@H]1C | < 500 |
| COCC(=O)N1CCCN(c2cc(-n3cnc(Nc4ccccc4)n3)ccn2)CC1 | > 1000 |
| CN1CCN(c2ccc(Nc3ncn(-c4ccccc4)n3)cn2)CC1 | > 1000 |
| CN(CCO)c1cc(-n2cnc(Nc3ccccc3)n2)ccn1 | < 500 |
| CCC(=O)N1CCCN(c2cc(-n3cnc(Nc4ccccc4)n3)ccn2)CC1 | > 1000 |
| c1ccc(-n2cnc(Nc3ccnc(NCCN4CCOCC4)c3)n2)cc1 | > 1000 |
